Results taken from patent US4395969A (priority 1981, dated 1983).

Experiments:
[1] = Half-life in river water with or without river mud, measured by bioassay with stickleback; assay type: physicochemical; conditions: river water with layer of river mud; 15 C
Experimental: The rate of deactivation was measured by bioassay with stickleback and the data were analyzed by conventional methods.

[2] = system: stickleback; experiment: Deactivation with activated carbon, survival of stickleback; assay type: in vivo; conditions: 2 mg/l; for Mean survival time, bioassay started 18 hours after chemical was added / Mean survival time, bioassay started when chemical was added: river water, 15 C
Experimental: A second lot of 5 fish was added to each aquarium 18 hours after the first lot of 10 fish had died or lost their equilibrium. As the life of the first lot of fish was short, the test water was only slightly conditioned by the dying fish and any error introduced by this procedure was relatively small.

[3] = system: carp; experiment: Bioassay, carp; assay type: in vivo, Cyprinus carpio; conditions: for selectivity to carp: in vivo
Experimental: In a later bioassay a concentration of 1 mg/l of 2, 2-dichlorovinyl diethyl phosphate killed a 20 g carp (68 mm) in 10 l of artesian well water (load, 2.0 g/l) at 10 C. in 30 hours.
A subsequent series of bioassays tested concentrations of 0.0, 0.6, 0.8, 1.0, 1.5 and 2.0 mg/l of 2, 2-dichlorovinyl diethyl phosphate with larger carp (fork length range, 115-150 mm; mean weight, 44 g) using 10 fish per concentration (load, 0.7 g/l) and artesian well water at 10 C. A concentration of 2.0 mg/l of the chemical killed 100 percent of the carp in 24 hours and a concentration of 1.5 mg/l killed 90 percent of them in […] and 100 percent in 72 hours. No fish died in the control or at a concentration of 0.6 mg/l in 192-hour bioassays. In contrast the LC0 of salmonids exposed to 2, 2-dichlorovinyl diethyl phosphate varies between 4 and 8 mg/l in 48-hour bioassays and 2 and 6 mg/l in 96-hour bioassays at 10 C. (Table 2).

[4] = system: Arctic grayling; experiment: Exploratory bioassay, Arctic grayling; assay type: in vivo, Thymallus arcticus; conditions: 10 μg/l; 48 h
Experimental: Cursory bioassays were made with small numbers of other fishes and a crayfish (Pacifasticus klamathensis) to check on the universal selectivity of the toxicants. The fishes included Arctic grayling (Thymallus arcticus), longnose sucker (C. catastomus), largescale sucker, (C. macrocheilus), and spotted sucker (Minytrema melanops).
Three longnose suckers (about 125 mm) and three Arctic grayling (about 125 mm) were exposed to 10 μg/l of 2, 2, 2, 1-tetrachloroethyl diethyl phosphate. The suckers died between 14 and 22 hours at 13 C. The grayling were not affected in 48-hour biassays.

[5] = system: kokanee; experiment: Static bioassay, lethal concentration to kokanee; assay type: in vivo, a land-locked subspecies of sockeye salmon; conditions: 15 C
Experimental: (§1) Bioassays utilized water from an artesian well at Moscow, Idaho and from the headwaters of the Palouse River, also in Idaho. The chemical characteristics of the artesian water were analyzed as follows: Total hardness 67-120 mg/l; total dissolved solids, 160-175 mg/l; and pH 7.1. The chemistry of the Palouse River water was analyzed as follows: total hardness 17 mg/l; methyl orange alkalinity 26 mg/l; total dissolved solids, 32 mg/l and pH, 7.0.
(§2) Fish were acclimated to test temperatures, usually at 5, 7.5, 10, 15 and 20 degrees Celsius (C), at least 60 hours before exposure to toxicants. For fish and crayfish four water baths regulated the temperature of assay aquaria. Each water bath contained a battery of 20 identical 19-liter clear glass containers or 11.4-liter plastic aquaria lined with disposable polyethylene bags and covered with Plexiglass lids to reduce evaporation. For larger fish and large numbers of fish the bioassays were made in two temperature controlled rooms that contained a series of 700-liter circular fiberglass vats and a series of 76- and 91-liter plastic containers.
(§3) Standard bioassay techniques were used in sorting fish and conducting the tests. Fish were placed in aerated test aquaria overnight to permit fish to recover from stress due to handling and to deprive them of food. The average load varied but most bioassays were conducted with about 1 g of fish per liter of water.
(§4) Aliquots of organophosphates were dissolved in ethanol and dispensed to the aquaria to provide concentrations suitable for obtaining the LC0 and LC50 of desirable fish and the LC50 and LC100 of target fish. Control fish were conditioned in the same manner as the test fish, but no chemical was added to the control vessels during the assays. After the addition of a chemical, observations were made mainly at 3, 6, 12, 24, 48, 96, and 192 h. The weight and fork length of fish were obtained when fishes were sacrificed.
(§5) Delineation bioassays determined primarily the LC50 and LC100 of sucker and stickleback and the LC0 and LC50 of salmonids.
(§6) The statistical LC1, LC50, and LC99 were interpolated and/or extrapolated using probit graph paper to approximate the LC0, LC50, and LC100 when the latter set of values was not closely determined by single concentrations in a series.
(§7) Threespine stickleback, brook stickleback, bridgelip sucker, white sucker, chinook salmon, coho salmon, sockeye salmon, kokanee, Kamloops trout, cutthroat trout, and brook trout were treated with various concentrations of 2, 2, 2, 1-tetrachloroethyl diethyl phosphate and at various temperatures to determine approximate selectivity and safety indices. The approximate LC50 and LC100 of the target fishes (threespine and brook sticklebacks and bridgelip and white suckers) are tabulated in Table 5. The 96-hour selectivity and safety indices of selected species of salmonids versus the threespine stickleback are tabulated in Table 7.

[6] = Static bioassay, lethal concentration to kokanee; assay type: in vivo, a land-locked subspecies of sockeye salmon; conditions: kokanee, water, 15 C
Experimental: as §1, §2, §3, §4, §5, §6, §7

[7] = system: crayfish; experiment: Long-term static bioassay, crayfish; conditions: 2 μg/l; one also missing in control

CCOP(=O)(OC=C(Cl)Cl)OCC [2,2-dichlorovinyl diethyl phosphate]
half-life [1]: 15 days
effect of activated carbon on mortality [2]: delayed mortality
survival time after 18-hour deactivation period ([2]; 8 and 32 mg/l of carbon): about tripled
Mean survival time, bioassay started 18 hours after chemical was added ([2]; activated carbon 0 mg/l): 9.5 h
Mean survival time, bioassay started when chemical was added ([2]; activated carbon 0 mg/l): 7.5 h
Mean survival time, bioassay started 18 hours after chemical was added ([2]; activated carbon 4 mg/l): 8.0 h
Mean survival time, bioassay started when chemical was added ([2]; activated carbon 4 mg/l): 9.2 h
Mean survival time, bioassay started 18 hours after chemical was added ([2]; activated carbon 8 mg/l): 33.5 h
Mean survival time, bioassay started when chemical was added ([2]; activated carbon 8 mg/l): 10.8 h
Mean survival time, bioassay started when chemical was added ([2]; activated carbon 16 mg/l): 12.0 h
Mean survival time, bioassay started when chemical was added ([2]; activated carbon 32 mg/l): 22.0 h
Mean survival time, bioassay started 18 hours after chemical was added ([2]; activated carbon 32 mg/l, 1 fish did not die (observed 11 days)): 95.0 h
carp mortality ([3]; 0.6 mg/l, 192 h, artesian well water, 10 C): No fish died
time in which carp was killed ([3]; 1 mg/l, 20 g carp, artesian well water, 10 C): 30 h
carp killed ([3]; 1.5 mg/l, 72 h, artesian well water, 10 C): 100%
carp killed ([3]; 1.5 mg/l, 96 h, artesian well water, 10 C): 90%
carp killed ([3]; 2.0 mg/l, 24 h, artesian well water, 10 C): 100%
selectivity to carp [3]: specific for the carp and bullhead catfish
selectivity to carp ([3]; listed as 2, 2-dichlorovinyl diethyl phosphate): the carp died first

CCOP(=O)(OCC)OC(Cl)C(Cl)(Cl)Cl (stereo not drawn) [2,2,2,1-tetrachloroethyl diethyl phosphate]
effect on grayling [4]: not affected
LC0 ([5]; 48 h): 30 µg/L
LC0 ([5]; 96 h): 20 µg/L
LC0 ([5]; 192 h): 20 µg/L
LC50 at 48 h ([6]; 48 h): 0.04 µg/mL
LC50 at 96 h ([6]; 96 h): 0.03 µg/mL
LC50 at 192 h ([6]; 192 h): 0.027 µg/mL
crayfish missing [7]: one
